Measured values: US20130331427A1, “METHODS OF STIMULATING CELLULAR GROWTH, SYNAPTIC, REMODELING AND CONSOLIDATION OF LONG-TERM MEMORY” (Blanchette Rockefeller Neuroscience Institute, priority 2007, published 2013)
“Also recorded” adds a separate entry of the source.

Legend:
ELAV = assay: acute hippocampal slices, nuclear export of ELAV; type: cell-based; details: 120-min incubation
[1] = cited from earlier work
PKC [2] = assay: PKC activity (histone phosphorylation) in Hermissenda nervous systems; type: in vivo
Method: Cells were homogenized by sonication (5 sec, 25 W) in 100 μl of 100 mM Tris-HCL pH 7.4 buffer containing 1 mM EGTA, 1 mM PMSF, and 50 mM NaF. Homogenate was transferred to a polyallomer centrifuge tube and was centrifuged at 100,000×g for 10 min at 4°. The supernatant was removed and immediately frozen on dry ice. The particulate fraction was resuspended by sonication in 100 μl of the same buffer and stored at −80°. To measure PKC, 10 μl of cytosol or particulate fraction was incubated for 15 min at 37° in the presence of 10 μM histones, 4.89 mM CaCl2, 1.2 μg/μl phosphatidyl-L-serine, 0.18 μg/μl 1.2-dioctanoyl-sn-glycerol, 10 mM MgCl2, 20 mM HEPES (pH 7.4), 0-8 mM EDTA, 4 mM EGTA, 4% glycerol, 8 μg/ml aprotinin, 8 μg/ml leupeptin, and 2 mM benzamidine. 0.5 μCi [γ^32-P]ATP was added and ^32P-phosphoprotein formation was measured by adsorption onto phosphocellulose as described previously (25). This assay was used with slight adjustments for either Hermissenda nervous system homogenates or cultured mammalian neuron homogenates.
Histone phosphorylation (See “Methods”) in isolated circumesophageal nervous systems was then measured in the cytosol fraction. […] (FIG. 12, 13).

sAPP secretion = sAPP secretion with bryostatin-1; type: cell-based; details: 0.1 nM
Text: Of particular interest are macrocyclic lactones (i.e. bryostatin class and neristatin class) that act to stimulate PKC. […] Bryostatin is currently in clinical trials as an anti-cancer agent. The bryostatins are known to bind to the regulatory domain of PKC and to activate the enzyme. […] (See, for example, WO 97/43268; incorporated herein by reference in its entirety).

PKC [3] = details: cited from earlier work
CA1 neurons = assay: acute hippocampal slices, number of dendritic spines (spinophilin); type: cell-based; details: 0.1 nM, spine marker spinophilin
PKCα = molecular target: T1, PKCα (Rattus norvegicus, UniProt P05696); type: cell-based
T1 construct: from tissue; host or cells: acute hippocampal slices

dendritic spines = dendritic spines of rats trained in a spatial maze task; type: in vivo, rat
Text: On retention day 2, confocal microscopy and […] were used to study filopodia and dendritic spines: mushroom, thin and stubby spines (Panel A).

Hermissenda Crassicornis = assay: Pavlovian conditioning of Hermissenda, memory retention; type: in vivo
Method: Specimens of Hermissenda Crassicornis were maintained in artificial sea water (ASW) at 15° for three days in perforated 50-ml conical centrifuge tubes before starting experiments. […] For selected experiments lactacysteine (10 μM) or anisomycin was added to the ASW.
Pavlovian conditioning of Hermissenda involves repeated pairings of a neutral stimulus, light, with an unconditioned stimulus, orbital shaking. (See, Lederhendler et al. (24) and Epstein et al. (6)). A rotation/shaking stimulus excites the statocyst hair cells and thereby elicits an unconditioned response: a brisk contraction of the muscular undersurface called a foot, accompanied by adherence or “clinging” to the surface that supports the foot. Before conditioning, light elicits a weakly positive phototaxis accompanied by lengthening of the foot. After sufficient light-rotation pairings, light no longer elicits phototaxis, but instead elicits a new response (24): the “clinging” and foot shortening previously elicited only by the unconditional stimulus (FIG. 1). Thus, the meaning of the unconditioned stimulus, rotation or orbital shaking, has been transferred to the conditioned stimulus and is manifested by a light-elicited foot contraction—a negative change of foot length. This conditioned response to light can last for weeks, is not produced by randomized light and rotation, is stimulus-specific, and shares the other defining characteristics of mammalian Pavlovian Conditioning.
Pavlovian conditioning of Hermissenda has well-defined training parameters that produce progressively longer-lasting retention of the learned conditioned response. Two training events (2 TE) of paired light and orbital shaking (see “Methods”), for example, induce a learned conditioned response (light-elicited foot contraction or shortening) that persists without drug treatment for approximately 7 minutes. Four to six training events (4-6 TE) induce a conditioned response that persists up to several hours, but disappears approximately by 1 day after training. Nine TE produces long-term associative memory lasting many days and often up to two weeks.
All animals were tested with the CS alone at 4 h, then at 24-h intervals.

presynaptic markers = assay: pre- and postsynaptic markers, quantitative confocal immunohistochemistry; type: in vivo, rat; details: bryostatin alone
Text: Water maze training increased the numbers of the dendritic spine marker spinophilin (FIG. 29; Panel B), postsynaptic membrane marker neurogranin (FIG. 29; Panels A and D), and presynaptic marker GAP-43 (Panels A and E), but not the axon bouton marker synaptophysin (FIG. 29; Panels A and B), as determined by quantitative confocal immunohistochemistry.

rats = assay: rat spatial (water) maze learning and memory; type: in vivo

In the case of `CCC/C=C/C=C/C(=O)O[C@H]1/C(=C/C(=O)OC)C[C@H]2C[C@H]([C@@H](C)O)OC(=O)C[C@H](O)C[C@@H]3C[C@H](OC(C)=O)C(C)(C)[C@](O)(C[C@@H]4C/C(=C/C(=O)OC)C[C@H](/C=C/C(C)(C)[C@]1(O)O2)O4)O3` [bryostatin, bryostatin-1], the ELAV transport (ELAV) is given as “significantly transported to dendrites”, the tolerability ([1]; 20 μg/m^2 once per week for 3 weeks) is given as “well tolerated” and the maximum-tolerated dose ([1]; 1 hour i.v. infusion once every 2 weeks for 6 weeks) is given as 50 μg/m^2. For the same compound, the maximum tolerated dose ([1]; once per week for 8 weeks) was 25 μg/m^2, the “myalgia reported, share of all treated patients” value ([1]; phase II clinical trials) was 10 to 87% and the “PKC activity, cytosol fraction” value (PKC [2]; 0.28 nM, 4 hour exposures, 10 minutes and 24 hours after the second of two exposures) was “significantly increased over baseline levels”. The “PKC activity, membrane fraction” value (PKC [2]; 24 hours after the second of two exposures) was “significantly increased over baseline”, the sAPP secretion (sAPP secretion) was “dramatic increase of sAPP secretion” and the “concentrations that activate PKC” value (PKC [3]) was “sub-nanomolar”. The “number of dendritic spines” value (CA1 neurons) was “augmented”, the “number of dendritic spines” value (CA1 neurons; listed as Bryostatin) was “increased” and the “activation of PKCα” value (PKCα) was “stimulates translocation to the plasma membrane; also recorded: selectively activated”. The “filopodia or thin spines” value (dendritic spines; all conditions) was “no changes”, the “number of stubby spines” value (dendritic spines; bryostatin alone (without training)) was “augmented” and the “total numbers of filopodia and (all shape) spines” value (dendritic spines; only bryostatin) was “similarly increased”. For the same compound, the “water-maze-induced increase in number of mushroom spines” value (dendritic spines; retention day 2, training plus bryostatin) was “enhanced”, the “increase in total numbers of filopodia and spines” value (dendritic spines; water maze rats also treated with bryostatin) was “enhanced” and the memory retention (Hermissenda Crassicornis; 2 TE plus bryostatin 0.25 ng/ml for 4 h during and after training, minutes without) was “lasting hours”. For the same compound, the memory retention (Hermissenda Crassicornis; 4 TEs plus bryostatin 0.25 ng/ml for 4 h) was greater than 24 h, the retention (Hermissenda Crassicornis; 20 h pre-exposure 0.25 ng/ml, 4-paired TE, at 48 h) was “persisted” and the “time by which retention was gone” value (Hermissenda Crassicornis; 20 hr exposure 0.25 ng/ml, 2-paired TE) was no more than 48 h. For the same compound, the “concentration that inhibited acquisition and behavioral retention” value (Hermissenda Crassicornis; all training conditions tested) was “greater than 1.0 ng/ml”, the “memory after 2, 4, or 6 training trials” value (Hermissenda Crassicornis; low doses (0.1-0.25 ng/ml)) was “markedly enhanced memory” and the conditioned response (Hermissenda Crassicornis; randomized presentations of light and rotation) was “no conditioned response”. For the same compound, the “time after which behavioral retention was lost” value (Hermissenda Crassicornis; single 4 h exposure 0.25 ng/ml alone, 2-paired TEs 24 hrs later) was no more than 24 h, the “concentrations that augment acquisition and memory retention” value (Hermissenda Crassicornis; sub-optimal (4 TE) training) was less than 0.50 ng/mL and the “long-term retention (LTR) post-training” value (Hermissenda Crassicornis; three successive days of 4-h exposure 0.25 ng/ml, 2-TEs one day later) was no less than 96 h. The long-term retention (Hermissenda Crassicornis; two successive days of 4-h exposure 0.25 ng/ml, 2-paired TEs) was “at least 6 days”, the “number of presynaptic markers” value (presynaptic markers) was “increased” and the “latency to reach the platform” value (rats; 10 μg/kg i.p. 20 min before training on day 1, 3, 5, vs. controls) was “greatly reduced”. The “number of target crossings” value (rats; retention Day 1) was “similarly enhanced” and the “time to reach the target quadrant” value (rats; retention day 1, 24 hours after all training) was “reduced”.
